Data set [1] has as its system rats. Kind of data set: maximal electroshock test (MES), anticonvulsant activity in rats. To be noted: for ED50: Rattus norvegicus. It counts as in vivo. As for the experimental part:
The anticonvulsant activity of certain compounds of the present invention was determined by a standard maximal electroshock test (MES); that described by L.A. Woodbury and V.D. Davenport, Arch. Int. Pharmacodyn., 1952, 92, 97.

Data set [2] has as its system Eimeria tenella. Description: in vivo anticoccidial activity against Eimeria tenella. Conditions: Concentration 400 ppm, cleared/total. As for the experimental part: The in vivo activity of two compounds of the present invention and a compound disclosed in US Patent No. 4189485 were determined against Eimeria tenella by the method disclosed in European Patent No. 0021293.

Data set [3] in a line: LD50 in the rat. To be noted: in vivo, po, approximate.
Where [4] appears, read: ip, rats, i.p., read-out: MES ED50 (mg/kg) i.p.
Setting [5] is: po, rats, p.o., read-out: MES ED50 (mg/kg) p.o.

Molecules are shown by their SMILES. Like-named read-outs stand apart in the source and are kept apart here.

A word on the LD50: it is the dose at which mortality reaches 50%. As for `CNc1ncnc2c1ncn2Cc1ccccc1F` [Compound 1, 9-(2-Fluorobenzyl)-6-methylamino-9H-purine], the ED50 in data set [1] (ip, read-out: MES ED50 (mg/kg) i.p.) was determined as 1.7 ± 0.4 mg/kg; in data set [1] (po, read-out: MES ED50 (mg/kg) p.o.) it was 2.5 ± 0.4 mg/kg. Moreover, the E.tenella cleared in data set [2] is 2/5. The same compound came in with an LD50 in data set [3] of about 1000 mg/kg.

As to `CN(C)c1ncnc2c1ncn2Cc1ccccc1F` [Compound 2, 6-dimethylamino-9-(2-fluorobenzyl)-9H-purine], the ED50 in data set [1] (setting [4]) is 8.8 ± 1.7 mg/kg. Also, in data set [2], the E.tenella cleared is given as 0/5.

With `Fc1ccccc1Cn1cnc2c(NC3CC3)ncnc21` [Compound 3, 6-cyclopropylamino-9-(2-fluorobenzyl)-9H-purine], the ED50 is 5 ± 0.4 mg/kg in data set [1] (setting [4]) and 7.8 ± 0.8 mg/kg in data set [1] (setting [5]).

With `CCNc1ncnc2c1ncn2Cc1ccccc1F` [Compound 4, 6-ethylamino-9-(2-fluorobenzyl)-9H-purine], the ED50 in data set [1] (setting [4]) stood at 4.9 ± 0.5 mg/kg.

For the compound `CC(C)Nc1ncnc2c1ncn2Cc1ccccc1F` [Compound 5, 9-(2-fluorobenzyl)-6-isopropylamino-9H-purine], the ED50 in data set [1] (setting [4]) was determined as 5.8 ± 0.6 mg/kg.

As for `Fc1ccccc1Cn1cnc2c(NCC3CC3)ncnc21` [Compound 6, 6-cyclopropylmethylamino-9-(2-fluorobenzyl)-9H-purine], the ED50 in data set [1] (setting [4]) stood at 4.3 ± 0.9 mg/kg; in data set [1] (setting [5]), 6.3 ± 1 mg/kg.

Consider `CN(c1ncnc2c1ncn2Cc1ccccc1F)C1CC1` [Compound 7, 9-(2-fluorobenzyl)-6-(N-methylcyclopropylamino)-9H-purine], for which, in data set [1] (setting [4]), the ED50 amounted to 6.8 ± 0.8 mg/kg.

In the case of `CCN(C)c1ncnc2c1ncn2Cc1ccccc1F` [Compound 8], the ED50 stood at 2.9 ± 0.3 mg/kg in data set [1] (setting [4]) and 6 ± 0.5 mg/kg in data set [1] (setting [5]).

`CCCNc1ncnc2c1ncn2Cc1ccccc1F` [Compound 9, 9-(2-fluorobenzyl)-6-propylamino-9H-purine]: the ED50 is 5.1 ± 0.5 mg/kg in data set [1] (setting [4]) and 4.6 ± 1 mg/kg in data set [1] (setting [5]).

In the case of `CCN(CC)c1ncnc2c1ncn2Cc1ccccc1F` [Compound 10, 6-diethylamino-9-(2-fluorobenzyl)-9H-purine], the ED50 in data set [1] (setting [4]) is 4.2 ± 0.5 mg/kg; in data set [1] (setting [5]) it was 5.9 ± 0.6 mg/kg.

Consider `Fc1ccccc1Cn1cnc2c(NC3CCCC3)ncnc21` [Compound 11, 6-cyclopentylamino-9-(2-fluorobenzyl)-9H-purine], for which the ED50 in data set [1] (setting [4]) worked out at 8 ± 1 mg/kg.

On to `Fc1cccc(F)c1Cn1cnc2c(NC3CC3)ncnc21` [Compound 12, 6-cyclopropylamino-9-(2,6-difluorobenzyl)-9H-purine], for which the ED50 worked out at 4 mg/kg in data set [1] (setting [4]) and 12.5 mg/kg in data set [1] (setting [5]).

Consider `CNc1ncnc2c1ncn2Cc1c(F)cccc1F` [Compound 13], for which the ED50 in data set [1] (setting [4]) was found to be 2 mg/kg.

Regarding `CN(C)c1ncnc2c1ncn2Cc1c(F)cccc1F` [Compound 14, ^g-(2,6-difluorobenzyl)-6-dimethylamino-9H-purine], the ED50 was found to be 2.2 ± 0.2 mg/kg in data set [1] (setting [4]) and 3.8 ± 0.6 mg/kg in data set [1] (setting [5]).

`CNc1ncnc2c1ncn2Cc1cc(F)ccc1F` [Compound 15, 9-(2,5-Difluorobenzyl)-6-methylamino-9H-purine]: the ED50 worked out at 4 ± 0.6 mg/kg in data set [1] (setting [4]) and 7 ± 1 mg/kg in data set [1] (setting [5]).

`Nc1ncnc2c1ncn2Cc1ccccc1F` [Compound 16, 6-Amino-9-(2-fluorobenzyl)-9H-purine]: the results for the ED50 in data set [1] (setting [4]) and in data set [1] (setting [5]) were 2.4 ± 0.6 mg/kg and 2.2 ± 0.4 mg/kg, respectively.

As to `Nc1ncnc2c1ncn2Cc1c(F)cccc1F` [Compound 27, 6-amino-9-(2,6-difluorobenzyl)-9H-purine], the ED50 in data set [1] (setting [4]) came to 9 mg/kg.

On to `Nc1ncnc2c1ncn2Cc1cc(F)ccc1F` [Compound 28, 6-amino-9-(2,5-difluorobenzyl)-9H-purine], for which the ED50 in data set [1] (setting [4]) turned out to be 5 mg/kg.

`OCNc1ncnc2c1ncn2Cc1ccccc1F` [Compound 29, 9-(2-Fluorobenzyl)-6-hydroxymethylamino-9H-purine]: the ED50 in data set [1] (setting [4]) turned out to be 4 mg/kg.

As for `COCN(C)c1ncnc2c1ncn2Cc1ccccc1F` [Compound 30, 9-(2-Fluorobenzyl)-6-(N-methoxymethyl-N-methylamino)-9H-purine], the ED50 in data set [1] (setting [4]) worked out at 5 mg/kg.

Turning to `COCNc1ncnc2c1ncn2Cc1ccccc1F` [Compound 31, 9-(2-Fluorobenzyl)-6-methoxymethylamino-9H-purine], in data set [1] (rats, 6.25mg/kg, printed in the i.p. column in place of an ED50), the “MES, % at 6.25mg/kg” value is “(17% at 6.25mg/kg)”.

`O=C1NC(=O)C(c2ccccc2)(c2ccccc2)N1` [phenytoin (Dilantin), 5,5-diphenylhydantoin, reference compound]: the ED50 in data set [1] (setting [4]) is 10 ± 2 mg/kg; in data set [1] (setting [5]) it was 20 ± 3 mg/kg.
